Converted amounts (≈) assume the structure as drawn. Counter-ions that a name gives are not always drawn. Like-named read-outs stand apart in the source and are kept apart here.
Experiments:
[1] = acute toxicity, LD 50, CD 1 mice; type: in vivo; details: mouse, in vivo
Text: (§1) The acute toxicities of the compounds according to the invention have been determined on CD 1 (Charles RIVER) mice by intravenous and oral methods. The LD 50 of each compound has been calculated by the cumulative method of J. J. Reed and H. Muench, (Amer. J. Hyg., 1938, 27, 493).

dogs = assay: anti-emetic activity, apomorphine vomiting test on dogs; type: in vivo; details: for ED50: Canis lupus familiaris, po, read-out: Anti-emetic activity on dogs ED 50
Text: The anti-emetic properties of the compounds according to the invention have been shown by oral administration of apomorphine to dogs in the vomiting test according to G. Chen and C. J. Ensor, Pharmacol. exp. Therap., 98, 24 (1950).

rat = assay: catalepsy test, rat; type: in vivo, CD rat (Charles RIVER); details: po, orally, read-out: Catalepsy AD 50
Text: (§2) The neuroloptic effects of the compounds according to the invention have been shown with respect to the CD rat (Charles RIVER) taken orally in the catalepsy test according to S. COURVOISIER, R. DUCROT, and L. JULOU, in Psychotropic Drugs, S. GARATTINI and V. GHETTI, Edit.--ELSEVIER Publ. Co., AMSTERDAM, LONDON, NEW YORK, PRINCETON, 1957 P. 373 and also in the traction test of CD1 (Charles RIVER) mice taken orally S. COURVOISIER, Quart. Rev. Psychiat. Neurol. 17, 25 (1956), on the one hand and also in the spontaneous motility test.

mouse [2] = assay: traction test, mouse; type: in vivo, CD1 (Charles RIVER) mice; details: po, orally, read-out: Traction AD 50
Text: as §2

mice [3] = assay: analgesic activity, painful abdominal torsions test with phenylbenzoquinone; type: in vivo, CD 1 (Charles RIVER) mice; details: for ED50: Mus musculus, po, mice, orally, read-out: Phenylbenzoquinone test on mice AD 50
Text: The analgesic properties of the products according to the invention have been shown with CD 1 (Charles RIVER) mice in the painful abdominal torsions test with phenylbenzoquinone according to the technique of E. Siegmund, R. Cadmus and Go.Lu--Proc. Soc. Exp. Biol. Med., 95, 729, (1957).

[4] = test system: serotonine plantar oedema; assay: anti-serotonine activity, serotonine plantar oedema; type: in vivo, CD (Charles RIVER) rats; details: po; rat, orally; read-out: Serotonine plantar oedema AD 50
Text: (§3) The anti-serotonine activities of the compounds according to the invention have been shown by oral administration to the CD (Charles RIVER) rats using the technique of the serotonine plantar oedema (W. Theobald and R. Domenjoz--Arzneimittel Forsch, 8, 18, 1958 and with the CD 1 (Charles RIVER) mice using the technique known as "head twitch" according to S. J. Corne, R. W. Pickering and B. T. Warner, Brit. J. Pharmacol., 20, 106, (1963). The anti-serotonine activity has also been determined on the one hand on the tricoloured guinea-pig, given intravenously, according to a method derived from H. Konzet and R. Rossler, Arch. exp. Pathol, Pharmakol., 195, 71, (1940) and on the other hand in vitro with respect to the serotonine spasm of the isolated uterus of the rat according to the technique of A. Fanchamps, W. Doepfener, H. Weidman and A. Cerletti, Schw. Med. Worsch, 90, 1940, (1960).

head twitch = assay: anti-serotonine activity, head twitch; type: in vivo, CD 1 (Charles RIVER) mice; details: Mus musculus, po; mice, orally; read-out: "Head-twitch" AD 50
Text: as §3

serotonine bronchospasms = assay: anti-serotonine activity, serotonine bronchospasms; type: in vivo, tricoloured guinea-pig; details: Cavia porcellus, iv; guinea pig, intravenously; read-out: Serotonine bronchospasms ED 50
Text: as §3

[5] = test system: isolated duodenum of the rabbit (acetylcholine); assay: spasmolytic effect on isolated duodenum, acetylcholine spasm; type: cell-based; details: Oryctolagus cuniculus, read-out: Spasmolytic effects EC 50 with respect to acetylcholine
Text: (§4) Ges. Physiol., 102, 123, (1904) with respect to the spasms of the isolated duodenum of rabbits caused either by acetylchlorine for the spasmolytic nemotropes or by barium chloride for the spasmolytic musculotropes.

[6] = test system: isolated duodenum of the rabbit (barium chloride); assay: spasmolytic effect on isolated duodenum, barium chloride spasm; type: cell-based; details: Oryctolagus cuniculus, read-out: Spasmolytic effects EC 50 with respect to barium chloride
Text: as §4

mice [7] = assay: acute toxicity, LD 50, CD 1 mice; type: in vivo; details: intravenous
Text: as §1

serotonine = assay: antiserotonine properties on the whole (all four tests); parameters: species or system rat, mice, guinea pig; details: comparison within the series
Text: as §3

[8] = test system: isolated duodenum of the rabbit; assay: spasmolytic activity overall; type: cell-based; details: isolated duodenum of rabbits
Text: as §4

mouse [9] = assay: spontaneous motility test (hypomotility), mouse; type: in vivo, mice; details: po, 1 h, orally, 60 minutes before measuring, 50% reduction of mean motility, first 5 minutes, read-out: Hypomotility ED 50
Text: as §2
This latter technique comprises keeping an account of the displacements of the mice by means of a floor of metal strips which enables the spontaneous activity of the animals to be recorded during the first 5 minutes subsequent to their being introduced into the measuring chamber. The products are dispensed 60 minutes before measuring is effected and 10 mice are used per dose. The results are expressed in ED 50 which represents the dose of substance capable of reducing the mean motility of the treated animals by 50% relative to that of the sample group which has only received the dispensing carrier.

solubility = type: physicochemical
[10] = intravenous, read-out: Acute toxicity for mice LD 50, intravenous
[11] = oral, read-out: Acute toxicity for mice LD 50, orally

SMILES	LD50 [1, 10] [mg/kg]	LD50 [1, 11] [mg/kg]	ED50 (rat) [mg/kg]	ED50 (mouse [2]) [mg/kg]	ED50 (mice [3]) [mg/kg]	ED50 [4] [mg/kg]	ED50 (head twitch) [mg/kg]	ED50 (serotonine bronchospasms) [mg/kg]	EC50 [5] [µg/mL]	EC50 [6] [µg/mL]	Acute toxicity for mice LD 50, intravenous (mice [7])	ED50 (dogs; dogs, orally, apomorphine) [mg/kg]	ED50 (mouse [9]) [mg/kg]	solubility in dilute hydrochloric acid (solubility)	solubility in ethanol (alcohol) (solubility)	solubility in water (solubility)	other results
CCNc1nc(Cl)c(SC)c(N2CCN(C)CC2)n1 [Example 1, 2-Ethylamino-4-N-methyl-piperazino-6-chloro-5-methylthio-pyrimidine hydrochloride]	41	~200	85	> 35	35	160	30	6	5	1.6	–	–	–	–	–	–	ED50 (dogs): 0.35 mg/kg
CSc1c(Cl)nc(Nc2ccccc2)nc1N1CCN(C)CC1 [Example 4, 2-phenylamino-4-N-methylpiperazino-6-chloro-5-methylthio-pyrimidine hydrochloride]	–	~600	–	–	–	–	60	–	–	–	insoluble	–	–	–	–	–	–
COCCCNc1nc(Cl)c(SC)c(N2CCN(C)CC2)n1 [Example 5, 3'-Methoxy-2-propylamino-4-N-methylpiperazino-6-chloro-5-methylthio-pyrimidine]	56	~200	175	30	35	90	–	–	> 5	1.3 (≈ 3.76 µM)	–	–	–	–	–	–	analgesic activity ranking (mice [3]; comparison within the series): the most active; antiserotonine properties ranking (serotonine): the greatest antiserotonine properties on the whole; spasmolytic activity type / ranking [8]: most effective
CC(=O)Nc1nc(Cl)c(C)c(N2CCN(C)CC2)n1 [Example 14, 2-Acetylamino-4-N-methylpiperazino-5-methyl-6-chloro-pyrimidine]	–	~270	–	–	35	–	–	–	–	–	insoluble	3.7	–	–	–	–	–
CSc1c(Cl)nc(N(C)C(C)=O)nc1N1CCN(C)CC1 [Example 16, 2-(N-methyl-N-acetyl)amino-4-N-methylpiperazino-5-methylthio-6-chloro-pyrimidine hydrochloride]	–	~525	–	–	–	100	> 100	–	–	–	insoluble	–	–	–	–	–	–
CCOCCOc1nc(NC)nc(N2CCN(C)CC2)c1SC [Example 20, 2-Methylamino-4-N-methylpiperazino-5-methylthio-6-β-ethoxyethoxy-pyrimidine hydrochloride]	–	~265	–	–	–	–	–	–	–	–	insoluble	–	–	–	–	–	–
CSc1c(Cl)nc(NC2CCCCC2)nc1N1CCN(C)CC1 [Example 23, 2-Cyclohexylamino-4-N-methylpiperazino-6-chloro-5-methylthiopyrimidine]	89	–	300	> 300	100	–	67	0.3	70 (≈ 197 µM)	0.25 (≈ 0.702 µM)	–	–	220	soluble	soluble	insoluble	–
CCCCCCNc1nc(Cl)c(SC)c(N2CCN(C)CC2)n1 [Example 25, 2-n.hexylamino-4-N-methylpiperazino-6-chloro-5-methylthiopyrimidine]	70	–	> 300	> 300	85	~300	55	0.18	1 (≈ 2.79 µM)	0.2 (≈ 0.559 µM)	–	5	70	soluble	very soluble	insoluble	spasmolytic activity type / ranking [8]: most effective; solubility in solvents (solubility; solvents): very soluble
CSc1c(Cl)nc(NCc2ccccc2)nc1N1CCN(C)CC1 [Example 26, 2-Benzylamino-4-N-methylpiperazino-5-methylthio-6-chloropyrimidine]	85	~525	33	45	35	–	17	0.05	0.2 (≈ 0.55 µM)	0.17 (≈ 0.467 µM)	–	~2	20	scarcely soluble	–	soluble	solubility in dilute methanesulphonic acid (solubility): soluble
CCCCN1CCN(c2nc(N(C)Cc3ccccc3)nc(Cl)c2SC)CC1 [Example 27, 2-(N-methyl N-benzylamino)-4-N-butylpiperazino-5-methylthio-6-chloropyrimidine hydrochloride]	–	–	–	–	400	> 400	–	–	–	–	insoluble	1.5	160	–	–	insoluble	solubility in dimethylsulphoxide (solubility; dimethylsulphoxide): soluble
CCCCN1CCN(c2nc(N3CCOCC3)nc(Cl)c2SC)CC1 [Example 29, 2-Morpholino-4-N-butylpiperazino-5-methylthio-6-chloropyrimidine]	–	~600	–	–	55	–	80	–	–	–	insoluble	> 5	50	–	soluble	insoluble	solubility in dilute methanesulphonic acid (solubility): soluble
CCCNc1nc(Cl)c(SC)c(N2CCN(C)CC2)n1 [Example 30, 2-n.propylamino-4-N-methylpiperazino-6-chloro-5-methylthiopyrimidine]	60	~200	> 300	–	> 400	–	10	0.05	9 (≈ 28.5 µM)	0.2 (≈ 0.633 µM)	–	0.16	25	soluble	soluble	insoluble	anti-vomiting ranking (dogs; comparison within the series, dogs): the most strong anti-vomiting agents; antiserotonine properties ranking (serotonine): the greatest antiserotonine properties on the whole; spasmolytic activity type / ranking [8]: most effective
CCCCNc1nc(Cl)c(SC)c(N2CCN(C)CC2)n1 [Example 31, 2-n.butylamino-4-N-methylpiperazino-6-chloro-5-methylthiopyrimidine]	98	~225	–	–	100	> 100	13	0.1	1.2 (≈ 3.64 µM)	0.3 (≈ 0.909 µM)	–	~3	20	soluble	soluble	insoluble	antiserotonine properties ranking (serotonine): the greatest antiserotonine properties on the whole

Source: US4166852A, “Piperazino-pyrimidines and their use as spasmolytic agents” (priority 1974, dated 1979)
